Data as given in patent US20080318803A1, “Biomarkers for Monitoring Impdh Pathway Inhibition” (VERTEX PHARMACEUTICALS, priority 2004, published 2008).
Read-outs that look alike come from different tables or passages of the source.

Key:
PBMCs PHA-T cell = assay: PBMC proliferation assay (PHA-stimulated T cells); type: cell-based, human; conditions: for IC50: Homo sapiens, PBMC
From the text: Monitoring gene expression patterns offers an alternative approach for optimizing the therapeutic window as compared with the traditional method of measuring drug concentrations in blood and correlating either the AUC or Cmax levels with a clinical response. Towards that end, the inventors have comprehensively evaluated several genes affected by treatment with two distinct IMPDH inhibitors in vitro, as potential readouts for assessing their biological activity. The genes that are listed in Tables I through VIII are particularly useful in the present invention. These genes were identified using the specific methods as follows: Most cell culture reagents, unless specified otherwise, were obtained from Gibco-BRL or JRH Biologicals. Complete RPMI was prepared by adding up to a final of 10% heat-inactivated fetal bovine serum (FBS), 55 μM β mercaptoethanol, 50 units/mL penicillin with 50 μg/mL streptomycin, 300 μg/ml L-glutamine and 10 mM HEPES pH 7.5 to RPMI1640. Stock solutions of Phyto-hemagglutinin (PHA-P, Difco) was prepared in FBS-free RPMI and stored at −20° C. VX-944, and MPA (Sigma-Aldrich or Calbiochem), were dissolved in DMSO at a concentration of 20 mM and stored at −20° C.
Peripheral blood mononuclear cells (PBMCs) and T cells were isolated as follows: Human venous blood was drawn from healthy volunteers using heparin as an anti-coagulant. PBMCs were isolated from blood by centrifugation over Ficoll-paque gradient or CPT tubes (Becton-Dickinson, Calif.), using standard conditions. PBMCs were harvested, washed and resuspended in complete RPMI, counted and diluted to 1×10^6 cells/ml.
In order to monitor PBMC proliferation assay, human PBMC derived T cells (5×10^4 cells/well), were added to 96-well plates. PHA was added up to a final concentration of 10-20 μg/mL per well for stimulating T cells. The mitogen SPAS was used at a final concentration of 2 mg/mL. DMSO was maintained at a final concentration of 0.1%.

[1] = test system: genes responsive to IMPDH inhibition; assay: Gene chip analysis of genes responsive to IMPDH inhibition (18 gene chips, 8793 genes); type: cell-based; conditions: for No. genes modulated: of 3421 genes common to all 18 gene chips
From the text: The present invention is directed to methods and compositions for using biomarkers that are responsive to changes in IMPDH activity levels.

HL-60 cells = assay: Affymetrix array transcript profiling in HL-60 cells, 14 h (early) and 30 h (late); type: cell-based, human
Description: The above agents were tested in HL-60 cells at a concentration of 500 nM for VX-944 and 1000 nM for MPA or with 0.1% DMSO as the vehicle control. The cells were harvested at 14 or 30 hours post addition of compound or vehicle. Briefly, the culture medium was removed at the appropriate time-points and the cells washed with PBS. The cells were then harvested, and pelleted by-gentle centrifugation. The supernatant was discarded and the pellets snap-frozen on an ethanol/dry-ice slurry. RNA was isolated from cells by using a RNEasy kit from Qiagen. RNAs were quality controlled using the Agilent 2100 Bioanalyzer to determine the presence of RNAs.
Data from the arrays corresponding to VX-944 and MPA at the two time-points—14 hours (Early) and 30 hours (Late) were analyzed using Spotfire™, microarray data analysis software. Some of the data analysis parameters used are outlined below:
a) All the arrays were normalized by using trimmed means, with a 5% exclusion limit
b) Only genes present in at least 5 of the 6 chips used for the analyses were included in the genesets
c) Only statistically significant genes (ANOVA, p<0.05) were included in the final analyses to generate gene lists.
At the late (30 h) time-point, 335 genes were identified as overlapping between the VX-944 and MPA datasets. […] With MPA 66 genes are in common between the two time-points. As to a comparison between the two data sets, of the 102 genes modulated by VX-944 and the 66 genes modulated by MPA, 43 genes […]. To add additional value to the gene lists and provide additional information to the investigator, the genes underlying each of these expression patterns was queried against publicly available databases. These databases included Locus Link, Gene Cards, KEGG, GO annotations, OMIM, PubMed. The information gathered from such an analysis is organized below in data tables.

both IMPDH isozymes = conditions: cited from earlier work
PBMC cells = assay: Gene expression changes in resting and PHA-stimulated (proliferating) PBMCs treated with VX-944; type: cell-based, human; conditions: proliferating lymphocytes; out of 67 genes
[2] = test system: human peripheral lymphocytes; conditions: cited from earlier work
[3] = read-out: PBMCs PHA-T cell IC50
[4] = read-out: PHA-T cell IC50 in the presence of guanosine
[5] = common to early (14 h) and late (30 h)
[6] = treated vs. DMSO, early (14 h), VX-944 500 nM, MPA 1000 nM

SMILES | Ratio of PHA-T cell IC50 in the presence and absence of guanosine (PBMCs PHA-T cell) | IC50 (PBMCs PHA-T cell; [3]) | IC50 (PBMCs PHA-T cell; [4]) | No. genes modulated: Decreased [1] | No. genes modulated: Increased [1] | No. genes modulated [1] | Number of Genes Downregulated (HL-60 cells; [5]) | Number of Genes Total (HL-60 cells; [5]) | Number of Genes Upregulated (HL-60 cells; [5]) | Number of Genes Downregulated (HL-60 cells; treated vs. DMSO, early (14 h)) | Number of Genes Total (HL-60 cells; treated vs. DMSO, early (14 h)) | Number of Genes Upregulated (HL-60 cells; [6]) | Number of Genes Downregulated (HL-60 cells; treated vs. DMSO, late (30 h)) | Number of Genes Total (HL-60 cells; treated vs. DMSO, late (30 h)) | Number of Genes Upregulated (HL-60 cells; treated vs. DMSO, late (30 h)) | further results
COc1c(C)c2c(c(O)c1C/C=C(\C)CCC(=O)O)C(=O)OC2 [MPA, Mycophenolic acid] | >224 | 89 nM | > 20000 nM | 36 | 39 | 75 | 0 | 66 | 66 | 0 | 105 | 105 | 560 | 1162 | 602 | FOLD CHANGE (MPA, EARLY) (HL-60 cells; gene ALG6): 1.5; FOLD CHANGE (MPA, EARLY) (HL-60 cells; gene C6orf18): 1.5; FOLD CHANGE (MPA, EARLY) (HL-60 cells; gene C8orf2): 1.5; FOLD CHANGE (MPA, EARLY) (HL-60 cells; gene C21orf4): 1.5; FOLD CHANGE (MPA, EARLY) (HL-60 cells; gene CLECSF5): 1.5; FOLD CHANGE (MPA, EARLY) (HL-60 cells; gene FBXO5): 1.6; FOLD CHANGE (MPA, EARLY) (HL-60 cells; gene FLJ10852 (HIP14L)): 1.5; FOLD CHANGE (MPA, EARLY) (HL-60 cells; gene KLHL2): 1.6; FOLD CHANGE (MPA, EARLY) (HL-60 cells; gene MGC13024): 1.5; FOLD CHANGE (MPA, EARLY) (HL-60 cells; gene MLC-B (MRLC2)): 1.8; FOLD CHANGE (MPA, EARLY) (HL-60 cells; gene RAGD): 1.5; FOLD CHANGE (MPA, EARLY) (HL-60 cells; gene RPAC2 (POLR1D)): 1.5; FOLD CHANGE (MPA, EARLY) (HL-60 cells; gene SNX10): 1.5; FOLD CHANGE (MPA, EARLY) (HL-60 cells; gene TMEM8): 1.7; FOLD CHANGE (MPA, EARLY) (HL-60 cells; gene TOPK): 1.5
COc1cc(NC(=O)Nc2cccc(CNC(=O)O[C@H]3CCOC3)c2)ccc1-c1cnco1 [VX-497] | 62 | 105 nM | 6500 nM | – | – | – | – | – | – | – | – | – | – | – | – | –
CC[C@H](CC#N)OC(=O)N[C@@H](C)c1cccc(NC(=O)Nc2ccc(-c3cnco3)c(OC)c2)c1 [VX-944] | 373 | 21 nM | 7800 nM | 60 | 46 | 106 | 0 | 102 | 102 | 119 | 291 | 172 | 0 | 434 | 434 | potency in cell assays relative to MPA (PBMCs PHA-T cell; VX-944 vs MPA): 3-4 fold; Ki (both IMPDH isozymes): 7 to 10 nM; number of genes implicated in cancers that are down-regulated (PBMC cells): 4; inhibition of lymphocyte proliferation on addition of guanosine ([2]; 50 μM guanosine): alleviated; potency in inhibiting lymphocyte proliferation compared with other IMPDH inhibitors ([2]; stimulated with either T or B-cell mitogens): more potent than VX-497 or MPA; IC50 ([2]; stimulated with either T or B-cell mitogens, read-out: IC50, inhibition of proliferation of human peripheral lymphocytes): 20 to 100 nM
